Test results: patent US20250114377A1, “TWO-PRONGED TREATMENT FOR NIEMANN PICK TYPE C DISEASE” (UNIVERSITY OF NOTRE DAME DU LAC, priority 2022, published 2025)
Entries after “also recorded” stand apart in the source; their conditions may differ.

How the values were obtained:
[1] = in vivo
Description: Studies have tested treatment 1× per week and 3× per week. However, from pharmacokinetic studies, it is known that 27-HC levels are only retained for 1-2 days. We will increase to daily treatment by oral gavage and measure serum levels of 27-HC to confirm maintenance of therapeutic levels. […] We will increase to higher doses by adding higher levels of DMSO to allow treatment with 20 mg/kg and 40 mg/kg.
We anticipate an increased benefit from treatment on a daily basis because the pharmacokinetics inform us about how long 27-HC remains in the blood (-100 ng/ml for 12 hours). For reference, children treated with Miglustat are dosed 3× per day. Higher doses of 27-HC and alternative cocktails are expected to reveal which parameters are more important for success. […] When crossed with NPC1(−/−) mice, they observe a significant decrease in NPC disease symptoms and an extension of lifespan (personal communication). This provides independent validation of the benefits associated with treatment with 27-HC. Finally, we expect improved outcomes for mice treated from conception over waiting until weaning (P21). This is because there is such a long window of brain development and maturation from conception to P21, that any developmental aspect of NPC disease would be well underway before we begin treatment at weaning.

[2] = test system: NPC1 mutant (null or I1061T) cells; test: Rescue of lysosomal tubulation by 27-HC in NPC1 mutant cells (FIG. 5); format: cell-based; settings: 27-HC in a cocktail that bypasses receptor-mediated endocytosis
Source text: FIG. 5. Impact of NPC1 and StARD9 Mutations on Rescue of Lysosomal Tubulation by 27-Hydroxycholesterol (27-HC). The ability of 27-HC to rescue lysosomal tubulation after depletion of NPC1 (shRNA-NPC1) or StARD9 (shRNA-STARD9) was compared to cells expressing the NPC1 (I1061T)-eGFP mutant (I1061T) or a eGFP-StARD9 construct expressing amino acids 1-4483 (STARD9-ΔSTART). ***—p<0.005; ns (not significant).
(§1) To test this idea, we treated either NPC1 mutant (null or I1061T) or StARD9 mutant (null or truncation mutant) cells with 27-HC in a cocktail that delivers it into the cytoplasm independent of receptor-mediated endocytosis. […] Next, we treated NPC1(−/−) mice with 27-HC by i.p. delivery.

[3] = test system: lysosomal tubulation; test: Rescue of lysosomal tubulation with purified oxysterols in LDL-depleted media (FIG. 4); format: cell-based
Description: FIG. 4. Rescue of Lysosomal Tubulation with Purified Oxysterols. Measurements of lysosomal tubulation comparing control complete media (Control) to media depleted of LDL (LDL−) and depleted media supplemented with 27-hydroxycholesterol (27-HC), 24-hydroxycholesterol (24-HC) or 25-hydroxycholesterol (25-HC).
Fixed and live-cell imaging was performed on COS-7 cells grown in Dulbecco's Modified Eagle's Medium (DMEM) supplemented with 10% fetal bovine serum, 1% L-glutamine, and penicillin/streptomycin (Sigma-Aldrich). Transfections were performed using either Lipofectamine (Life Technologies), X-treme Gene DNA Transfection reagent (Roche, Indianapolis, IN) or Nanofect (Allstem, Richmond, CA). J774A.1 mouse macrophages were provided and cultured in the same media. Cells were tested for contamination using PCR-based test kits (Sartorius, Inc.; Cat #SMB95-1001).
Microscopy experiments were performed on a Zeiss Axiovert 200M (Thornwood, NY) run by Metamorph software (Sunnyvale, CA). Fixed and live cell imaging data was collected using either a Photometrics Coolsnap HQ or Cascade 1k CCD camera (Tucson, AZ). Timelapse imaging of cells expressing NPC1-EGFP and mCherry-StARD9 utilized a Dual-view camera (Photometrics) adapter to allow simultaneous acquisition of green and red channels at each timepoint. Kymographs were generated in Metamorph using a 1p m slice from each frame.
as §1

With `C[C@@H](CO)CCC[C@@H](C)[C@H]1CC[C@H]2[C@@H]3CC=C4C[C@@H](O)CC[C@]4(C)[C@H]3CC[C@]12C` [27-HC, 27-hydroxycholesterol] the “How long 27-HC remains in the blood” value [1] was 12 h, the “Time 27-HC levels are retained” value [1] was 1 to 2 days and the “27-HC level in the blood” value ([1]; 12 hours) was -100 ng/mL. For the same molecule, the “Rescue of lysosomal tubulation in NPC1 mutant cells” value [2] was “rescued lysosomal tubulation in NPC1 mutant; also recorded: corrects the lysosomal tubulation defects” and the “Potency as signaling molecule for StARD9 among cholesterol and individual oxysterols” value [3] was “most potent candidate”.
